This is an account of results in PMC11434749, “In Vitro Interaction of Binuclear Copper Complexes with Liver Drug-Metabolizing Cytochromes P450” (Pharmaceuticals, 2024).

The data set is described as follows: Stability on recrystallization from water and methanol. The conditions noted are these: recrystallized from water and from methanol, crystals of the same composition. The class given is physicochemical. Here is the method: [Cu2(μ-fu)(pmdien)2(H2O)2](ClO4)2 (complex No. 5) and [Cu2(μ-dtdp)(pmdien)2(H2O)2](ClO4)2 (complex No. 6) were prepared according to a published procedure. […] The structure of complex No. 6 was presented by us in [20]. The structure of complex No. 5 was measured again (the structure was previously solved with worse parameters by Mautner), and our new single crystal data were deposited under CCDC 2378750. Tables with crystal data, structure refinement, and selected bond lengths and angles are presented in ESI (Tables S1–S3). The molecular structures are depicted in Figure 1. It can be seen that the binuclear copper complexes differ in the dicarboxylato bridge. The coordination number on copper is five. All the copper centers are coordinated by three nitrogen atoms of tridentate chelating ligand pmdien and two oxygen atoms. One oxygen is from a water molecule, and the second one is from a monodentately bonding carboxylato group. The fumarato bridge contains a double bond, whereas the dithiodipropionato bridge is longer, with two sulfur atoms. Neither the double bond nor the sulfur atoms are involved in coordination with central atoms. Two perchlorate anions in each molecule are not involved in coordination. There are only hydrogen bonds among the oxygen atoms of the perchlorate group and hydrogens of the coordination cation.

Regarding `CN(C)CCN(C)CCN(C)C.CN(C)CCN(C)CCN(C)C.O.O.O=C([O-])/C=C/C(=O)[O-].[Cu+2].[Cu+2].[O-][Cl+3]([O-])([O-])[O-].[O-][Cl+3]([O-])([O-])[O-]` [Complex No. 5, [Cu2(μ-fu)(pmdien)2(H2O)2](ClO4)2], the “stability of the complex in solvents” value is “very good stability”.
